# Test system: alcohol dehydrogenase (ADH)
# Test: ADH activity enhancing efficacy (in vitro, Bergmeyer method)
# Assay type: biochemical
# Details: samples treated at 10 μM; control group (CTL) not treated = 100%; FIGS. 1 and 2
# Method: The ADH activity was measured by referring to [Bergmeyer, H. U. 1974. Methods of enzymatic analysis. Academic Press, New York. pp. 28], and measurements were made according to the method presented herein. All samples were treated at 10 μM, and the ADH activity of each sample was expressed as relative activity (%) with respect to the control group, based on 100% of the activity of the control group (CTL) which was not treated with the sample.
row,SMILES,ADH activity compared to the control group
1,O=C(O)c1ccc(O)cc1 [4-hydroxybenzoic acid],did not show an increase
2,CC(=O)OCC1=C[C@@H]2OC(=O)C3=CO[C@@H](O[C@@H]4O[C@H](CO)[C@@H](O)[C@H](O)[C@H]4O)[C@H]1[C@@H]32 [asperuloside],did not show an increase
3,CC(=O)OCC1=C[C@H](O)[C@@H]2C(C(=O)O)=CO[C@@H](O[C@@H]3O[C@H](CO)[C@@H](O)[C@H](O)[C@H]3O)[C@H]12 [asperulosidic acid],did not show an increase
4,O=C(O)/C=C/c1ccc(O)c(O)c1 [caffeic acid],did not show an increase
5,O=C(/C=C/c1ccc(O)c(O)c1)O[C@@H]1C[C@](O)(C(=O)O)C[C@@H](O)[C@H]1O [chlorogenic acid],did not show an increase
6,O=C(O)C1=CO[C@@H](O[C@@H]2O[C@H](CO)[C@@H](O)[C@H](O)[C@H]2O)[C@@H]2C(CO)=C[C@H](O)[C@H]12 [deacetylasperulosidic acid],did not show an increase
7,O=C(O)c1cc(O)c(O)c(O)c1 [gallic acid],did not show an increase
8,COc1ccc(C(=O)O)cc1 [p-anisic acid],did not show an increase
9,COc1cc2ccc(=O)oc2cc1O [scopoletin],did not show an increase

# Source: patent US20240016876A1, “COMPOSITION FOR HANGOVER RELIEF COMPRISING NONI FRUIT EXTRACT OR FRACTION THEREOF AND USE THEREOF” (Cosmax NBT, Inc., priority 2020, published 2024)
